Results as given in patent US11827628B2, “Compositions and methods for inhibition of the JAK pathway” (Rigel Pharmaceuticals, Inc., priority 2005, dated 2023).

Key:
[1] = tested on: Primary human T-cells; test: Primary Human T-Cell Proliferation Assay Stimulated with IL-2 (CellTiter-Glo); type: cell-based; conditions: Homo sapiens, T-cell, primary human T-cells stimulated with IL-2, proliferation; read-out: IC50, Example 42
How it was run: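 IC50 derived from CellTiter-Glo ATP signal after 72 hours of IL-2-driven proliferation at 37° C. Cells: primary human T-cells from blood, stimulated beforehand 3-4 days on anti-CD3/anti-CD28 with IL-2, then rested from IL-2 before compound exposure in duplicate; IL-2-free wells served as unstimulated control.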

[2] = tested on: up-regulation of ICAM-1 (CD54) by IFNγ in A549 lung epithelial cells; test: A549 Epithelial Line Stimulated with IFNγ (ICAM-1 surface expression, FACS); type: cell-based, human; conditions: Homo sapiens, A549, A549 cells stimulated with IFNγ, ICAM-1 expression by FACS; read-out: IC50, Example 43
Text: The activity of the compounds of the invention may additionally be characterized by assaying the effect of the 2,4-substituted pyrimidinediamine compounds described herein on A549 lung epithelial cells and U937 cells. A549 lung epithelial cells and U937 cells up-regulate ICAM-1 (CD54) surface expression in response to a variety of different stimuli. Therefore, using ICAM-1 expression as readout, test compound effects on different signaling pathways can be assessed in the same cell type. Stimulation with IL-1β through the IL-1β receptor activates the TRAF6/NFκB pathway resulting in up-regulation of ICAM-1. IFNγ induces ICAM-1 up-regulation through activation of the JAK1/JAK2 pathway. The up-regulation of ICAM-1 can be quantified by flow cytometry across a compound dose curve and EC50, values are calculated. An exemplary assays of this type are described in greater detail in Examples 43 and 44
A549 lung epithelial cells up-regulate ICAM-1 (CD54) surface expression in response to a variety of different stimuli. Therefore, using ICAM-1 expression as readout, compound effects on different signaling pathways can be assessed in the same cell type. IFNγ up-regulates ICAM-1 through activation of the JAK/Stat pathway. In this example, the up-regulation of ICAM-1 by IFNγ was assessed.
The A549 lung epithelial carcinoma cell line originated from the American Type Culture Collection. Routine culturing was with F12K media (Mediatech Inc., Lenexa, KS, Cat. No. 10-025-CV) with 10% fetal bovine serum, 100 I.U. penicillin and […] streptomycin (complete F12k media). Cells were incubated in a humidified atmosphere of 5% CO2 at 37° C. Prior to use in the assay, A549 cells were washed with PBS and trypsinized (Mediatech Inc., Cat. No. 25-052-CI) to lift the cells. The trypsin cell suspension was neutralized with complete F12K media and centrifuged to pellet the cells. The cell pellet was resuspended in complete F12K media at a concentration of 2.0×10^5/mL. Cells were seeded at 20,000 per well, 100 μL total volume, in a flat bottom tissue culture plate and allowed to adhere overnight.
On day two, A549 cells were pre-incubated with a 2,4-substituted pyrimidinediamine test compound or DMSO (control) (Sigma-Aldrich, St. Louis, MO, Catalog No. D2650) for 1 hour. The cells were then stimulated with IFNγ (75 ng/mL) (Peprotech Inc., Rocky Hill, NJ, Cat. No. 300-02) and allowed to incubate for 24 hours. The final test compound dose range was 30 μM to 14 nM in 200 μL F12K media containing 5% FBS, 0.3% DMSO.
On day three, the cell media was removed and the cells were washed with 200 μL PBS (phosphate buffered saline). Each well was trypsinized to dissociate the cells, then neutralized by addition of 200 μL complete F12K media. Cells were pelleted and stained with an APC conjugated mouse anti-human ICAM-1 (CD54) (BD Pharmingen, San Diego, CA, Catalog #559771) antibody for 20 minutes at 4° C. Cells were washed with ice cold FACS buffer (PBS+2% FBS) and surface ICAM-1 expression was analyzed by flow cytometry. Detection was performed using a BD LSR I System Flow Cytometer, purchased from BD Biosciences of San Jose, California Events were gated for live scatter and the geometric mean was calculated (Becton-Dickinson CellQuest software version 3.3, Franklin Lakes, NJ). Geometric means were plotted against the compound concentration to generate a dose response curve.

Row | IC50 [2] | SMILES | IC50 [1]
1 | 14700 nM | Cc1ccc(Nc2ncc(F)c(Nc3ccc(O)cc3)n2)cc1S(N)(=O)=O [VI-102, N2-(3-Aminosulfonyl-4-methylphenyl)-5-fluoro-N4-[4-hydroxyphenyl]-2,4-pyrimidinediamine] | 135 nM
2 | 8100 nM | COc1ccc(Nc2nc(Nc3ccc(N4CCN(C)CC4)c(S(N)(=O)=O)c3)ncc2F)cc1Cl [VI-116, N2-[3-Aminosulfonyl-4-(4-methylpiperazine-1-yl)phenyl]-N4-(3-chloro-4-methoxyphenyl)-5-fluoro-2,4-pyrimidinediamine] | 174 nM
3 | 3060 nM | CN1C(=O)CSc2ccc(Nc3nc(Nc4cccc(S(N)(=O)=O)c4)ncc3F)cc21 [VII-49, N2-(3-Aminosulfonylphenyl)-5-fluoro-N4-(4-methyl-3-oxo-benz[1,4]thiazin-6-yl)-2,4-pyrimidinediamine] | 54.9 nM
4 | 54000 nM | N#CCN1C(=O)CSc2ccc(Nc3nc(Nc4cccc(S(N)(=O)=O)c4)ncc3F)cc21 [Compound V-12, N2-(3-Aminosulphonylphenyl)-5-fluoro-N4-(3-oxo-4-cyanomethyl-benzo[1,4]thiazin-6-yl)-2,4-pyrimidinediamine] | 957 nM
5 | 30300 nM | N#CCc1c[nH]c2ccc(Nc3nc(Nc4cccc(S(N)(=O)=O)c4)ncc3F)cc12 [IX-13, N2-(3-Aminosulfonylphenyl)-N4-(3-cyanomethyl-1H-indol-5-yl)-5-fluoro-2,4-pyrimidinediamine] | 430 nM
6 | 9930 nM | Cc1ccc2cc(Nc3nc(Nc4cccc(S(N)(=O)=O)c4)ncc3F)ccc2n1 [VII-72, N2-(3-Aminosulfonylphenyl)-5-fluoro-N4-(2-methylquinolin-6-yl)-2,4-pyrimidinediamine] | 415 nM
7 | 4130 nM | C#CCNc1ccc(Nc2nc(Nc3ccc(C)c(S(N)(=O)=O)c3)ncc2F)cc1 [VI-65, N2-(3-Aminosulfonyl-4-methylphenyl)-5-fluoro-N4-[4-(prop-2-ynylamino)phenyl]-2,4-pyrimidinediamine] | 209 nM
8 | 24700 nM | NS(=O)(=O)c1ccc(Nc2ncc(F)c(Nc3ccc(CCCO)cc3)n2)cc1 [VI-85, N2-(4-Aminosulfonylphenyl)-5-fluoro-N4-[4-(3-hydroxypropyl)phenyl]-2,4-pyrimidinediamine] | 762 nM
9 | 4580 nM | Cc1ccc(Nc2ncc(F)c(Nc3ccc(CCCF)cc3)n2)cc1S(N)(=O)=O [VI-84, N2-(3-Aminosulfonyl-4-methylphenyl)-5-fluoro-N4-[4-(3-fluoropropyl)phenyl]-2,4-pyrimidinediamine] | 514 nM

Further lines, the compound ahead of its results:

Row | SMILES | IC50 [2] | IC50 [1]
10 | Cc1ccc(Nc2ncc(F)c(Nc3ccc(CO)cc3)n2)cc1S(N)(=O)=O [VI-52, N2-(3-Aminosulfonyl-4-methylphenyl)-5-fluoro-N4-(4-hydroxymethylphenyl)-2,4-pyrimidinediamine] | 5920 nM | 162 nM
11 | C#CCOc1ccc(Nc2nc(Nc3ccc(C)c(S(=O)(=O)NC)c3)ncc2F)cc1 [VI-68, 5-Fluoro-N2-(4-methyl-3-methylaminosulfonylphenyl)-N4-[4-(prop-2-ynyloxy)phenyl]-2,4-pyrimidinediamine] | 26800 nM | 742 nM
12 | NS(=O)(=O)c1cccc(Nc2ncc(F)c(Nc3ccc(CCCO)cc3)n2)c1 [VI-86, N2-(3-Aminosulfonylphenyl)-5-fluoro-N4-[4-(3-hydroxypropyl)phenyl]-2,4-pyrimidinediamine] | 4440 nM | 178 nM
13 | CC#CCOc1ccc(Nc2nc(Nc3ccc(C)c(S(N)(=O)=O)c3)ncc2F)cc1 [VI-61, N2-(3-Aminosulfonyl-4-methylphenyl)-N4-[4-(but-2-ynyloxy)phenyl]-5-fluoro-2,4-pyrimidinediamine] | 3110 nM | 185 nM
14 | NS(=O)(=O)c1cc(Nc2ncc(F)c(Nc3ccc(O)cc3)n2)ccc1F [VI-100, N2-(3-Aminosulfonyl-4-fluorophenyl)-5-fluoro-N4-(4-hydroxyphenyl)-2,4-pyrimidinediamine] | 9180 nM | 74.3 nM
15 | COc1ccc(Nc2nc(Nc3ccc(C)c(S(N)(=O)=O)c3)ncc2F)nc1N [VII-9, N2-(3-Aminosulfonyl-4-methylphenyl)-N4-[2-amino-3-methoxypyrid-6-yl]-5-fluoro-2,4-pyrimidinediamine] | 17100 nM | 2720 nM
16 | Cc1ccc(Nc2ncc(F)c(Nc3ccc4c(c3)N(CC#N)C(=O)CS4)n2)cc1S(N)(=O)=O [Compound V-13, N2-(3-Aminosulphonyl4-methylphenyl)-5-fluoro-N4-(3-oxo-4-cyanomethyl-benzo[1,4]thiazin-6-yl)-2,4-pyrimidinediamine] | 6870 nM | 468 nM
17 | COc1ccc(Nc2nc(Nc3cc(C)c(Cl)c(S(N)(=O)=O)c3)ncc2F)cc1Cl [VI-17, N2-(3-Aminosulfonyl-4-chloro-5-methylphenyl)-N4-(3-chloro-4-methoxyphenyl)-5-fluoro-2,4-pyrimidinediamine] | 6420 nM | 244 nM
18 | Cc1ccc(Nc2ncc(F)c(Nc3ccc4c(c3)NC(=O)CS4)n2)cc1S(N)(=O)=O [VII-44, N2-(3-Aminosulphonyl-4-methyl-phenyl)-5-fluoro-N4-(3-oxo-4H-benzo[1,4]thiazin-6-yl)-2,4-pyrimidinediamine] | 9120 nM | 546 nM
19 | COc1c(C)cc(Nc2ncc(F)c(Nc3ccc(C(C)(C)C)cc3)n2)cc1S(N)(=O)=O [VI-37, N2-(3-Aminosulfonyl-4-methoxy-5-methylphenyl)-N4-(4-tert-butylphenyl)-5-fluoro-2,4-pyrimidinediamine] | 12400 nM | 1080 nM
